Experimental data published in US20250290117A1, “MOLECULAR PHENOTYPIC ANTIMICROBIAL SUSCEPTIBILITY TESTING” (priority 2024, published 2025).

Test system: pathogens of clinical samples
Test: Molecular phenotypic antimicrobial susceptibility test of clinical samples, extraction DNA purification step prior to PCR (Table 6)
Format: cell-based
Experimental: Detection of Molecular Phenotypic Antimicrobial Susceptibility. Disclosed herein are the methods for the detection of phenotypic antimicrobial susceptibility via molecular methods. The present invention describes how a specimen 100 with a known microbial load is incubated and then exposed to a panel of antimicrobial agents to determine sensitivity (prevention of growth) or resistance (allowance of growth) to the specific antimicrobial agents tested utilizing molecular methods.
Sample Collection. Specimens 100 are collected from patients using sterile collection processes that are employed in routine clinical care. Specimens are transported to the testing facility in boric acid preservative.
Preparation of the Specimens for Testing. […] The process for pathogen isolation includes steps of harvesting the pathogen (e.g., via centrifugation), isolating pathogen DNA via a DNA isolation and/or purification kit, and performing PCR on the pathogen DNA via PCR components (e.g., primers, enzymes, buffers) as would be known to the skilled artisan. […] This aliquot is used for antimicrobial susceptibility testing if indicated based on the pathogen detection results. […] Specimens 100 with lower pathogen loads could also be utilized in the antibiotic susceptibility phase of testing with or without a longer incubation period.
Preparation of Antimicrobial Susceptibility Testing Plates. Antimicrobial solutions are prepared at known concentrations. The specific antimicrobials and their concentrations are selected based on the pathogen of interest and the described antimicrobial resistance breakpoints for that specimen pathogen and antimicrobial combination. These antimicrobials have been selected based on those commonly utilized by healthcare providers in routine clinical care for the specific type of suspected infection. The number and types of antimicrobials utilized can be customized based on the infection source, pathogen detected, patient-specific factors such as allergies or other health conditions (e.g., chronic kidney disease or concurrent medication use), or healthcare provider preferences such as antimicrobial availability or cost.
The antimicrobial solutions are prepared in liquid culture media (such as Muller Hinton Broth) to achieve the desired antimicrobial concentration and are then stored at −80° C. until use. For a given specimen, each antimicrobial is tested at a single or multiple antimicrobial concentration(s) which is its established breakpoints for sensitivity. The antimicrobial solutions are prepared and plated out for each specific pathogen. […] This allows for evaluation of pathogen load when no antimicrobial is present.
Specimen Exposure to Antimicrobial Agents. The 1 mL aliquot of the specimen 100 previously mixed with culture media and incubated is obtained. Using optical density measurements as a guide, the specimen 100 is diluted to 0.5 McFarland.
Antimicrobial exposure plates are typically placed into an incubator for 12-16 hours.
Nucleic Acid Amplification of Antimicrobial Agent Exposed Pathogens. The antimicrobial exposure plate is removed after the period of incubation. The specimen then undergoes a purification or lysis step. For example, the specimen may undergo a purification step (e.g., magnetic bead-based or other separation protocol to isolate genetic material). In another example, the specimen may undergo a cell lysis step. For example, buffer (e.g., lysis buffer) may be added and incubated in the thermal cycler for preparation for direct PCR. Next, the specimen may undergo a polymerase chain reaction (PCR) testing protocol, whereby a semi-quantitative PCR method is utilized. This may be completed either with or without a specific extraction protocol step. The pathogens can be individually targeted and detected, or a universal genetic sequence can be utilized to detect the antimicrobial susceptibility of the specimen as a whole.

[1] = E. coli, clinical sample of r10-r24
[2] = E. coli, clinical sample of r10-r24, Ct Control Avg 18.112
[3] = E. coli, clinical sample of r158-r172
[4] = E. coli, clinical sample of r158-r172, Ct Control Avg 20.146
[5] = E. faecalis, clinical sample of r93-r99
[6] = E. faecalis, clinical sample of r93-r99, Ct Control Avg 22.987
[7] = E. faecalis, clinical sample of r100-r106, Ct Control Avg 23.073
[8] = E. faecalis, clinical sample of r107-r113, Ct Control Avg 22.144
[9] = E. faecalis, clinical sample of r114-r120
[10] = E. faecalis, clinical sample of r114-r120, Ct Control Avg 20.822
[11] = E. faecalis, clinical sample of r151-r157
[12] = E. faecalis, clinical sample of r151-r157, Ct Control Avg 20.56
[13] = K. aerogenes, clinical sample of r136-r150
[14] = K. aerogenes, clinical sample of r136-r150, Ct Control Avg 19.994
[15] = K. pneumoniae, clinical sample of r121-r135
[16] = K. pneumoniae, clinical sample of r121-r135, Ct Control Avg 24.272
[17] = M. morganii, clinical sample of r55-r69
[18] = M. morganii, clinical sample of r70-r84
[19] = P. mirabilis, clinical sample of r25-r39
[20] = P. mirabilis, clinical sample of r25-r39, Ct Control Avg 26.064
[21] = P. mirabilis, clinical sample of r40-r54
[22] = P. mirabilis, clinical sample of r40-r54, Ct Control Avg 26.987
[23] = S. aureus, clinical sample of r85-r92
[24] = S. aureus, clinical sample of r85-r92, Ct Control Avg 24.32

Row | SMILES | Molecular Antibiotic Susceptibility Result [1] | Ct [2] | Molecular Antibiotic Susceptibility Result [3] | Ct [4] | Molecular Antibiotic Susceptibility Result [5] | Ct [6] | Ct [7] | Ct [8] | Molecular Antibiotic Susceptibility Result [9] | Ct [10] | Molecular Antibiotic Susceptibility Result [11] | Ct [12] | Molecular Antibiotic Susceptibility Result [13] | Ct [14] | Molecular Antibiotic Susceptibility Result [15] | Ct [16] | Molecular Antibiotic Susceptibility Result [17] | Molecular Antibiotic Susceptibility Result [18] | Molecular Antibiotic Susceptibility Result [19] | Molecular Antibiotic Susceptibility Result [23] | also measured
1 | C[C@H]1COc2c(N3CCN(C)CC3)c(F)cc3c(=O)c(C(=O)O)cn1c23 [Levofloxacin] | Resistant | 17.903 | Sensitive (Antimicrobial wells with pathogen load detected below the control wells (typically >2 cycle thresholds later) may be reported as Sensitive) | 34.012 | Sensitive (Antimicrobial wells with pathogen load detected below the control wells (typically >2 cycle thresholds later) may be reported as Sensitive) | 37.857 | 38.337 | 29.347 | Sensitive (Antimicrobial wells with pathogen load detected below the control wells (typically >2 cycle thresholds later) may be reported as Sensitive) | 32.971 | Sensitive (Antimicrobial wells with pathogen load detected below the control wells (typically >2 cycle thresholds later) may be reported as Sensitive) | 37.926 | Sensitive (Antimicrobial wells with pathogen load detected below the control wells (typically >2 cycle thresholds later) may be reported as Sensitive) | 38.019 | Sensitive (Antimicrobial wells with pathogen load detected below the control wells (typically >2 cycle thresholds later) may be reported as Sensitive) | 34.466 | Sensitive (Antimicrobial wells with pathogen load detected below the control wells (typically >2 cycle thresholds later) may be reported as Sensitive) | Sensitive (Antimicrobial wells with pathogen load detected below the control wells (typically >2 cycle thresholds later) may be reported as Sensitive) | Sensitive (Antimicrobial wells with pathogen load detected below the control wells (typically >2 cycle thresholds later) may be reported as Sensitive) | Resistant | Ct (M. morganii, clinical sample of r70-r84, Ct Control Avg 27.053): 37.67; Ct [20]: 33.029; Molecular Antibiotic Susceptibility Result [21]: Sensitive (Antimicrobial wells with pathogen load detected below the control wells (typically >2 cycle thresholds later) may be reported as Sensitive); Ct [22]: 33.384; Ct [24]: 19.106
2 | O=C1CN(/N=C/c2ccc([N+](=O)[O-])o2)C(=O)N1 [Nitrofurantoin] | Sensitive (Antimicrobial wells with pathogen load detected below the control wells (typically >2 cycle thresholds later) may be reported as Sensitive) | 29.981 | Sensitive (Antimicrobial wells with pathogen load detected below the control wells (typically >2 cycle thresholds later) may be reported as Sensitive) | 34.794 | Sensitive (Antimicrobial wells with pathogen load detected below the control wells (typically >2 cycle thresholds later) may be reported as Sensitive) | 38.744 | 37.449 | 32.584 | Sensitive (Antimicrobial wells with pathogen load detected below the control wells (typically >2 cycle thresholds later) may be reported as Sensitive) | 34.318 | Sensitive (Antimicrobial wells with pathogen load detected below the control wells (typically >2 cycle thresholds later) may be reported as Sensitive) | – | Sensitive (Antimicrobial wells with pathogen load detected below the control wells (typically >2 cycle thresholds later) may be reported as Sensitive) | 38.755 | Sensitive (Antimicrobial wells with pathogen load detected below the control wells (typically >2 cycle thresholds later) may be reported as Sensitive) | 33.13 | Sensitive (Antimicrobial wells with pathogen load detected below the control wells (typically >2 cycle thresholds later) may be reported as Sensitive) | Sensitive (Antimicrobial wells with pathogen load detected below the control wells (typically >2 cycle thresholds later) may be reported as Sensitive) | Resistant | Sensitive (Antimicrobial wells with pathogen load detected below the control wells (typically >2 cycle thresholds later) may be reported as Sensitive) | Ct [20]: 22.903; Molecular Antibiotic Susceptibility Result [21]: Resistant; Ct [22]: 23.887; Ct [24]: 30.822
3 | CN[C@H](CC(C)C)C(=O)N[C@H]1C(=O)N[C@@H](CC(N)=O)C(=O)N[C@H]2C(=O)N[C@H]3C(=O)N[C@H](C(=O)N[C@H](C(=O)O)c4cc(O)cc(O)c4-c4cc3ccc4O)[C@H](O)c3ccc(c(Cl)c3)Oc3cc2cc(c3O[C@@H]2O[C@H](CO)[C@@H](O)[C@H](O)[C@H]2O[C@H]2C[C@](C)(N)[C@H](O)[C@H](C)O2)Oc2ccc(cc2Cl)[C@H]1O [Vancomycin] | – | – | – | – | Sensitive (Antimicrobial wells with pathogen load detected below the control wells (typically >2 cycle thresholds later) may be reported as Sensitive) | – | 37.981 | 32.184 | Sensitive (Antimicrobial wells with pathogen load detected below the control wells (typically >2 cycle thresholds later) may be reported as Sensitive) | 34.122 | Sensitive (Antimicrobial wells with pathogen load detected below the control wells (typically >2 cycle thresholds later) may be reported as Sensitive) | Undet | – | – | – | – | – | – | – | Resistant | Molecular Antibiotic Susceptibility Result (E. faecalis, clinical sample of r100-r106): sensitive; Molecular Antibiotic Susceptibility Result (E. faecalis, clinical sample of r107-r113): sensitive
